# Legend:
# mouse MALAT RNA = assay: MALAT RNA reduction in vivo, C57BL6/J mice, multiple dose; conditions: for ED50: IV day 0, 4, 8
# Method: Compound Nos. 556089, 1229761, and 1229762 are described in Table 1 above. Compound Nos. 556089, 1229761, and 1229762 were tested in C57BL6/J mice. The mice were divided into groups of 4 mice each. […] The mice were then sacrificed on day 12. Heart, adipose, adrenal, kidney, and liver tissue was then collected and homogenized and RNA analysis was performed. A group of 4 mice received PBS as a negative control.
# RNA was extracted from heart, adipose, adrenal, kidney, and liver tissue for real-time PCR analysis of measurement of RNA expression of MALAT using primer probe set mMALAT1 #2 (forward sequence […] (SEQ ID NO: 5); reverse sequence […] (SEQ ID NO: 6); probe sequence […] (SEQ ID NO: 7)). Results are presented as percent change of RNA, relative to PBS control, normalized to mouse GAPDH.
# human MALAT1 RNA [1] = assay: MALAT1 RNA reduction in HEK-AGTR1 FAP cells, free uptake, 24 hours; assay type: cell-based; conditions: 24 hours; for MALAT (% control): relative to untreated control cells
# Method: (§1) At the end of the treatment period, total RNA was isolated from the cells and MALAT1 RNA levels were measured by quantitative real-time PC&. […] MALAT1 RNA levels were normalized according to total RNA content, as measured by RIBOGREEN®. Reduction of MALAT1 RNA is presented Table 3 below as percent MALAT1 RNA amount relative to untreated control (UTC) cells. The half maximal inhibitory concentration (IC50) of each modified oligonucleotide was calculated using a non-linear fit [inhibitor] vs. response—variable slope (four parameters) formula in GraphPad Prism 7.01.
# HEK-APLNR FAP cells = assay: IP1 accumulation negative control in HEK-APLNR FAP cells (do not express AGTR1); assay type: cell-based, human; conditions: 24 hours
# Method: Activated AGTR1 couples to the Gαq subunit of heterotrimeric G proteins, which activates the phospholipase C (PLC) and subsequently inositol 1,4,5-trisphosphate (IP3) signaling cascade. AGTR1 signaling was measured using an IP-One Gq kit (cisbio #62IPAPEB). The kit detects the accumulation of inositol monophosphate (IP1), a stable downstream metabolite of IP3 induced by activation of a phospholipase C (PLC) cascade.
# As a negative control, Compound Nos. 556089 and 1229761 were also tested in HEK293 cells expressing FAP tagged human Apelin receptor (HEK-APLNR FAP cells from Spectragenetics). […] HEK-APLNR FAP cells were cultured with Compound Nos. 556089 and 1229761, described herein above, at the concentrations detailed in Table 2 for 24 hours.
# human MALAT1 RNA [2] = assay: MALAT1 RNA reduction in HEK-AGTR1 FAP cells, free uptake, 48 hours; assay type: cell-based; conditions: 48 hours; for MALAT (% control): relative to untreated control cells
# Method: as §1, with “PCR.” for “PC&.”, “Reduction of MALAT1 RNA is presented Table 3 below as percent MALAT1 RNA amount relative to untreated control (UTC) cells.” left out, “response-variable” for “response—variable”, “(three” for “(four”
substance,measurement,setting,value
Compound No. 1229762: Extended Angiotensin II peptide [N6-(2-azidoacetyl)-K]PPPAGSSPGDRVYIHPF conjugated via linker to 5′-end of MALAT1 modified oligonucleotide TCAGCATTCTAATAGCAGC,MALAT-1 RNA (% control),"mouse MALAT RNA; Adipose, 0.4 μmol/kg IV day 0, 4, 8, sacrifice day 12, relative to PBS",58.3 % control
same,MALAT-1 RNA (% control),"mouse MALAT RNA; Adipose, 1.2 μmol/kg IV day 0, 4, 8, sacrifice day 12, relative to PBS",40.1 % control
same,MALAT-1 RNA (% control),"mouse MALAT RNA; Adipose, 3.6 μmol/kg IV day 0, 4, 8, sacrifice day 12, relative to PBS",20.5 % control
same,ED50,mouse MALAT RNA; Adipose,1.385 µmol/kg
same,MALAT-1 RNA (% control),"mouse MALAT RNA; Adrenal, 0.4 μmol/kg IV day 0, 4, 8, sacrifice day 12, relative to PBS",87.8 % control
same,MALAT-1 RNA (% control),"mouse MALAT RNA; Adrenal, 1.2 μmol/kg IV day 0, 4, 8, sacrifice day 12, relative to PBS",66.5 % control
same,MALAT-1 RNA (% control),"mouse MALAT RNA; Adrenal, 3.6 μmol/kg IV day 0, 4, 8, sacrifice day 12, relative to PBS",45.2 % control
same,ED50,mouse MALAT RNA; Adrenal,1.2 µmol/kg
same,MALAT-1 RNA (% control),"mouse MALAT RNA; Heart, 0.4 μmol/kg IV day 0, 4, 8, sacrifice day 12, relative to PBS",86.2 % control
same,MALAT-1 RNA (% control),"mouse MALAT RNA; Heart, 1.2 μmol/kg IV day 0, 4, 8, sacrifice day 12, relative to PBS",73.4 % control
same,MALAT-1 RNA (% control),"mouse MALAT RNA; Heart, 3.6 μmol/kg IV day 0, 4, 8, sacrifice day 12, relative to PBS",40 % control
same,ED50,mouse MALAT RNA; Heart,3.14 µmol/kg
same,MALAT-1 RNA (% control),"mouse MALAT RNA; Kidney, 0.4 μmol/kg IV day 0, 4, 8, sacrifice day 12, relative to PBS",50.6 % control
same,MALAT-1 RNA (% control),"mouse MALAT RNA; Kidney, 1.2 μmol/kg IV day 0, 4, 8, sacrifice day 12, relative to PBS",43.8 % control
same,MALAT-1 RNA (% control),"mouse MALAT RNA; Kidney, 3.6 μmol/kg IV day 0, 4, 8, sacrifice day 12, relative to PBS",22.4 % control
same,ED50,mouse MALAT RNA; Kidney,3.084 µmol/kg
same,MALAT-1 RNA (% control),"mouse MALAT RNA; Liver, 0.4 μmol/kg IV day 0, 4, 8, sacrifice day 12, relative to PBS",40.5 % control
same,MALAT-1 RNA (% control),"mouse MALAT RNA; Liver, 1.2 μmol/kg IV day 0, 4, 8, sacrifice day 12, relative to PBS",15.1 % control
same,MALAT-1 RNA (% control),"mouse MALAT RNA; Liver, 3.6 μmol/kg IV day 0, 4, 8, sacrifice day 12, relative to PBS",5.7 % control
same,ED50,mouse MALAT RNA; Liver,0.085 µmol/kg
same,MALAT (% control),human MALAT1 RNA [1]; 12 nM,105 % control
same,MALAT (% control),human MALAT1 RNA [1]; 37 nM,90 % control
same,MALAT (% control),human MALAT1 RNA [1]; 111 nM,59 % control
same,MALAT (% control),human MALAT1 RNA [1]; 333 nM,36 % control
same,MALAT (% control),human MALAT1 RNA [1]; 1000 nM,41 % control
same,MALAT (% control),human MALAT1 RNA [1]; 3000 nM,22 % control
same,MALAT (% control),human MALAT1 RNA [1]; 9000 nM,24 % control
same,IC50,"human MALAT1 RNA [1]; MALAT1 RNA, four parameter fit",100 nM
same,improvement in target knockdown in words,human MALAT1 RNA [1]; among compounds tested,greatest improvement in target knockdown
same,IP1 accumulation,HEK-APLNR FAP cells; 0.0256 nM,723 nM
same,IP1 accumulation,HEK-APLNR FAP cells; 0.128 nM,634 nM
same,IP1 accumulation,HEK-APLNR FAP cells; 0.64 nM,679 nM
same,IP1 accumulation,HEK-APLNR FAP cells; 3.2 nM,596 nM
same,IP1 accumulation,HEK-APLNR FAP cells; 16 nM,526 nM
same,IP1 accumulation,HEK-APLNR FAP cells; 80 nM,517 nM
same,IP1 accumulation,HEK-APLNR FAP cells; 400 nM,609 nM
same,IP1 accumulation,HEK-APLNR FAP cells; 2000 nM,576 nM
same,MALAT (% control),human MALAT1 RNA [2]; 2.7 nM,100 % control
same,MALAT (% control),human MALAT1 RNA [2]; 8.2 nM,80 % control
same,MALAT (% control),human MALAT1 RNA [2]; 24.7 nM,69 % control
same,MALAT (% control),human MALAT1 RNA [2]; 74.1 nM,66 % control
same,MALAT (% control),human MALAT1 RNA [2]; 222.2 nM,42 % control
same,MALAT (% control),human MALAT1 RNA [2]; 666.7 nM,16 % control
same,MALAT (% control),human MALAT1 RNA [2]; 2000 nM,12 % control
same,MALAT (% control),human MALAT1 RNA [2]; 6000 nM,9 % control
same,MALAT (% control),human MALAT1 RNA [2]; .10 nM,103 % control
same,MALAT (% control),human MALAT1 RNA [2]; .3 nM,106 % control
same,MALAT (% control),human MALAT1 RNA [2]; .9 nM,101 % control
same,IC50,"human MALAT1 RNA [2]; MALAT1 RNA, three parameter fit",125 nM

# Reference: patent US20220243210A1, “ANGIOTENSIN II TYPE 1 RECEPTOR TARGETED OLIGONUCLEOTIDES AND USES THEREOF” (Ionis Pharmaceuticals, Inc., priority 2019, published 2022)
